Assay results published in US20260364184A1, “COMPOUND BASED ON OXOISOINDOLINYL-SUBSTITUTED TETRAHYDROPYRIMIDINE-DIONE AND USE THEREOF” (GLUETACS THERAPEUTICS (SHANGHAI) CO., LTD., priority 2023, published 2026).

Biological target: T1, IRAK4 (Homo sapiens, UniProt Q9NWZ3)
T1 construct: expression of target proteins in cells; endogenous in cells
T1 sequence (Q9NWZ3 1-460): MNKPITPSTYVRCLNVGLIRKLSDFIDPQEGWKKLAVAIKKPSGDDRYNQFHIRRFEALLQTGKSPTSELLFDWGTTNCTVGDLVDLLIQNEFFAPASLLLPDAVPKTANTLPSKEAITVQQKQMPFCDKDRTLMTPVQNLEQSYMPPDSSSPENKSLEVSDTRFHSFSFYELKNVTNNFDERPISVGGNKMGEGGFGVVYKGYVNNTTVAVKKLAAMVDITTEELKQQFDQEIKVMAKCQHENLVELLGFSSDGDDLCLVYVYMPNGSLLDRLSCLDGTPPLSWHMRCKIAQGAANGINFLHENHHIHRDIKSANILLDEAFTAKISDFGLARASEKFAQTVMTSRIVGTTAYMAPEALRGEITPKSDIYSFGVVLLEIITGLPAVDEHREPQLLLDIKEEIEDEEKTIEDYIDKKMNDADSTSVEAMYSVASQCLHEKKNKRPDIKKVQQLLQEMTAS
Experiment: Western blot degradation of IRAK4
Assay type: cell-based
Details: hPBMC Cell; 24 hours
Experimental: Conventional Western blot assay was performed to evaluate the effects of the compounds of the present disclosure on the expression of target proteins in cells.
(1) Cell Seeding and Protein Harvesting: The selected cells were processed according to the cell seeding procedure and protein harvesting procedure in Table II-2.
(2) To the collected supernatant, 5×SDS sample loading buffer was added, followed by denaturation at 95 °C for 5 minutes. The denatured samples were then separated by SDS-PAGE electrophoresis on a polyacrylamide gel. Proteins were transferred to a nitrocellulose membrane (0.45 μm NC membrane), blocked with blocking buffer at room temperature for 1 hour, and subjected to antibody incubation and development procedures according to the antibody manufacturer's instructions (Cell Signaling Technology).
Half-Maximal Degradation Concentration value (the drug concentration required for degrading proteins by 50%, abbreviated as DC50) reads method: comparing the grayscale values of Western blot bands from drug-treated samples with those from blank DMSO-treated controls, and identifying the drug concentration range at which the grayscale value is half that of the DMSO-treated control bands.
DC50 values can be calculated using ImageJ software to measure grayscale values of Western blot bands from drug-treated samples. The concentration-response curve is fitted to estimate the drug concentration corresponding to half the grayscale value.
Target protein remaining (%) refers to the percentage of target protein remaining in cells after treatment with protein degrader compounds.
Calculation method for target protein remaining (%): Use ImageJ software to measure grayscale values of Western blot bands from drug (protein degrader)-treated samples. The grayscale value of drug-treated bands is divided by that of internal control protein bands, and the resulting quotient is normalized to obtain the relative percentage of remaining target protein after protein degrader treatment.
Target protein degradation rate (%)=1−target protein remaining (%).

Row | Compound | Degradation of substrate protein IRAK4 (substrate protein remaining %)
1 | COc1cc2nn([C@H]3CC[C@H](CN4CCN(C5CCN(c6ccc7c(c6)C(=O)N(N6CCC(=O)NC6=O)C7=O)CC5)CC4)CC3)cc2cc1NC(=O)c1cccc(C(F)(F)F)c1 [GT-08671, N-(2-((1r,4r)-4-((4-(1-(2-(2,4-dioxotetrahydropyrimidin-1(2H)-yl)-1,3-dioxoisoindolin-5-yl)piperidin-4-yl)piperazin-1-yl)methyl)cyclohexyl)-6-methoxy-2H-indazol-5-yl)-3-(trifluoromethyl)benzamide] | A (0%≤substrate protein remaining %≤80%)
2 | COc1ccc2cn(C3CCN(CC4CCN(c5ccc6c(c5)C(=O)N(N5CCC(=O)NC5=O)C6=O)CC4)CC3)nc2c1NC(=O)c1cccc(C(F)(F)F)c1 [GT-04885, N-(2-(1-((1-(2-(2,4-dioxotetrahydropyrimidin-1(2H)-yl)-1,3-dioxoisoindolin-5-yl)piperidin-4-yl)methyl)piperidin-4-yl)-6-methoxy-2H-indazol-7-yl)-3-(trifluoromethyl)benzamide] | A (0%≤substrate protein remaining %≤80%)
3 | COc1cc2nn([C@H]3CC[C@H](CN4C5CCC4CN(c4ccc6c(c4)C(=O)N(N4CCC(=O)NC4=O)C6=O)C5)CC3)cc2cc1NC(=O)c1cccc(C(F)(F)F)n1 [GT-08654, N-(2-((1r,4r)-4-((3-(2-(2,4-dioxotetrahydropyrimidin-1(2H)-yl)-1,3-dioxoisoindolin-5-yl)-3,8-diazabicyclo[3.2.1]octan-8-yl)methyl)cyclohexyl)-6-methoxy-2H-indazol-5-yl)-6-(trifluoromethyl) picolinamide] | A (0%≤substrate protein remaining %≤80%)
4 | O=C1CCN(N2C(=O)c3ccc(N4CCC(N5CCC(CN6CCC(n7cc(NC(=O)c8coc(-c9ccnc(NCC%10CC%10)c9)n8)c(C(F)F)n7)CC6)CC5)CC4)cc3C2=O)C(=O)N1 [GT-05133, 2-(2-((cyclopropylmethyl)amino)pyridin-4-yl)-N-(3-(difluoromethyl)-1-(1-((1′-(2-(2,4-dioxotetrahydropyrimidin-1(2H)-yl)-1,3-dioxoisoindolin-5-yl)-[1,4′-bipiperidin]-4-yl)methyl)piperidin-4-yl)-1H-pyrazol-4-yl) oxazole-4-carboxamide] | A (0%≤substrate protein remaining %≤80%)
5 | COc1cc2nn(C3CCN(Cc4ccc5c(c4)CN(N4CCC(=O)NC4=O)C5=O)CC3)cc2cc1NC(=O)c1cccc(C(F)(F)F)c1 [GT-04876, N-(2-(1-((2-(2,4-dioxotetrahydropyrimidin-1(2H)-yl)-1-oxoisoindolin-5-yl)methyl)piperidin-4-yl)-6-methoxy-2H-indazol-5-yl)-3-(trifluoromethyl)benzamide] | A (0%≤substrate protein remaining %≤80%)
6 | CC(C)(O)c1cc2nn(C3CCN(CC4CCN(c5ccc6c(c5)C(=O)N(N5CCC(=O)NC5=O)C6=O)CC4)CC3)cc2cc1NC(=O)c1cccc(C(F)(F)F)n1 [GT-05220, N-(2-(1-((1-(2-(2,4-dioxotetrahydropyrimidin-1(2H)-yl)-1,3-dioxoisoindolin-5-yl)piperidin-4-yl)methyl)piperidin-4-yl)-6-(2-hydroxypropan-2-yl)-2H-indazol-5-yl)-6-(trifluoromethyl) picolinamide] | A (0%≤substrate protein remaining %≤80%)
7 | O=C1CCN(N2C(=O)c3cccc(N4CCN(C[C@H]5CC[C@H](n6cc(NC(=O)c7cnn8ccc(N9C[C@H]%10C[C@@H]9CO%10)nc78)c(C(F)F)n6)CC5)CC4)c3C2=O)C(=O)N1 [GT-05241, 5-((1R,4R)-2-oxa-5-azabicyclo[2.2.1]heptan-5-yl)-N-(3-(difluoromethyl)-1-((1r,4R)-4-((4-(2-(2,4-dioxotetrahydropyrimidin-1(2H)-yl)-1,3-dioxoisoindolin-4-yl)piperazin-1-yl)methyl)cyclohexyl)-1H-pyrazol-4-yl)pyrazolo[1,5-a]pyrimidine-3-carboxamide] | A (0%≤substrate protein remaining %≤80%)
8 | O=C1CCN(N2C(=O)c3ccc(N4CCN(C[C@H]5CC[C@H](n6cc(NC(=O)c7cnn8ccc(N9C[C@H]%10C[C@@H]9CO%10)nc78)c(C(F)F)n6)CC5)CC4)c(F)c3C2=O)C(=O)N1 [GT-05827, 5-((1R,4R)-2-oxa-5-azabicyclo[2.2.1]heptan-5-yl)-N-(3-(difluoromethyl)-1-((1r,4R)-4-((4-(2-(2,4-dioxotetrahydropyrimidin-1(2H)-yl)-4-fluoro-1,3-dioxoisoindolin-5-yl)piperazin-1-yl)methyl)cyclohexyl)-1H-pyrazol-4-yl)pyrazolo[1,5-a]pyrimidine-3-carboxamide] | A (0%≤substrate protein remaining %≤80%)
9 | COc1cc2nn([C@H]3CC[C@H](CN4CCN(c5cc(F)c6c(c5)C(=O)N(N5CCC(=O)NC5=O)C6=O)CC4)CC3)cc2cc1NC(=O)c1cccc(C(F)(F)F)n1 [GT-08657, N-(2-((1r,4r)-4-((4-(2-(2,4-dioxotetrahydropyrimidin-1(2H)-yl)-7-fluoro-1,3-dioxoisoindolin-5-yl)piperazin-1-yl)methyl)cyclohexyl)-6-methoxy-2H-indazol-5-yl)-6-(trifluoromethyl) picolinamide] | A (0%≤substrate protein remaining %≤80%)
10 | COc1cc2nn(C3CCN(CC4CCN(c5ccc6c(c5)C(=O)N(N5CCC(=O)NC5=O)C6=O)CC4)CC3)cc2cc1NC(=O)c1cccc(C(F)(F)F)c1 [GT-04877, N-(2-(1-((1-(2-(2,4-dioxotetrahydropyrimidin-1(2H)-yl)-1,3-dioxoisoindolin-5-yl)piperidin-4-yl)methyl)piperidin-4-yl)-6-methoxy-2H-indazol-5-yl)-3-(trifluoromethyl)benzamide] | A (0%≤substrate protein remaining %≤80%)
11 | O=C1CCN(N2C(=O)c3ccc(N4CC5CC(C4)N5C[C@H]4CC[C@H](n5cc(NC(=O)c6cnn7ccc(N8C[C@H]9C[C@@H]8CO9)nc67)c(C(F)F)n5)CC4)cc3C2=O)C(=O)N1 [GT-05822, 5-((1R,4R)-2-oxa-5-azabicyclo[2.2.1]heptan-5-yl)-N-(3-(difluoromethyl)-1-((1r,4R)-4-((3-(2-(2,4-dioxotetrahydropyrimidin-1(2H)-yl)-1,3-dioxoisoindolin-5-yl)-3,6-diazabicyclo[3.1.1]heptan-6-yl)methyl)cyclohexyl)-1H-pyrazol-4-yl)pyrazolo[1,5-a]pyrimidine-3-carboxamide] | A (0%≤substrate protein remaining %≤80%)
12 | COc1cc2nn([C@H]3CC[C@H](CN4CCN(c5cccc6c5C(=O)N(N5CCC(=O)NC5=O)C6=O)CC4)CC3)cc2cc1NC(=O)c1cccc(C(F)(F)F)n1 [GT-08655, N-(2-((1r,4r)-4-((4-(2-(2,4-dioxotetrahydropyrimidin-1(2H)-yl)-1,3-dioxoisoindolin-4-yl)piperazin-1-yl)methyl)cyclohexyl)-6-methoxy-2H-indazol-5-yl)-6-(trifluoromethyl) picolinamide] | A (0%≤substrate protein remaining %≤80%)
13 | O=C1CCN(N2C(=O)c3ccc(N4CCC(N5CCN(C[C@H]6CC[C@H](n7cc(NC(=O)c8cnn9ccc(N%10C[C@H]%11C[C@@H]%10CO%11)nc89)c(C(F)F)n7)CC6)CC5)CC4)cc3C2=O)C(=O)N1 [GT-05122, 5-((1R,4R)-2-oxa-5-azabicyclo[2.2.1]heptan-5-yl)-N-(3-(difluoromethyl)-1-((1r,4R)-4-((4-(1-(2-(2,4-dioxotetrahydropyrimidin-1(2H)-yl)-1,3-dioxoisoindolin-5-yl)piperidin-4-yl)piperazin-1-yl)methyl)cyclohexyl)-1H-pyrazol-4-yl)pyrazolo[1,5-a]pyrimidine-3-carboxamide] | A (0%≤substrate protein remaining %≤80%)
14 | CC(C)(O)c1cc2nn(C3CCN(CC4CCN(C5CCN(c6ccc7c(c6)C(=O)N(N6CCC(=O)NC6=O)C7=O)CC5)CC4)CC3)cc2cc1NC(=O)c1cccc(C(F)(F)F)n1 [GT-05290, N-(2-(1-((1′-(2-(2,4-dioxotetrahydropyrimidin-1(2H)-yl)-1,3-dioxoisoindolin-5-yl)-[1,4′-bipiperidin]-4-yl)methyl)piperidin-4-yl)-6-(2-hydroxypropan-2-yl)-2H-indazol-5-yl)-6-(trifluoromethyl) picolinamide] | A (0%≤substrate protein remaining %≤80%)
